Measurements: ChEMBL document CHEMBL3769371, “1-[(2E)-3-Phenylprop-2-enoyl]-1H-benzimidazoles as anticancer agents: synthesis, crystal structure analysis and binding studies of the most potent anticancer molecule with serum albumin” (Medchemcomm, 2015)

How the values were obtained:
[1] = Cytotoxicity against human UACC62 cells after 48 hrs by SRB assay; assay type: functional; settings: UACC-62, 48 h
[2] = test system: MDA-MB-468; assay: Cytotoxicity against human MDA-MB-468 cells assessed as cell growth at 10^-5 M after 48 hrs by SRB assay; assay type: functional; settings: MDA-MB-468, 48 h, read-out: Activity
[3] = Antiproliferative activity against human MOLT4 cells at 10'5 M; assay type: functional, MOLT-4
[4] = Cytotoxicity against human SNB19 cells assessed as cell growth at 10^-5 M after 48 hrs by SRB assay; assay type: functional; settings: SNB-19, 48 h, read-out: Activity
[5] = Cytotoxicity against human SF268 cells after 48 hrs by SRB assay; assay type: functional; settings: SF-268, 48 h
[6] = test system: MDA-MB-435; assay: Cytotoxicity against human MDA-MB-435 cells after 48 hrs by SRB assay; assay type: functional; settings: MDA-MB-435, 48 h
[7] = Cytotoxicity against human HCT116 cells after 48 hrs by SRB assay; assay type: functional; settings: HCT-116, 48 h
[8] = test system: 786-0; assay: Cytotoxicity against human 786-0 cells after 48 hrs by SRB assay; assay type: functional; settings: 786-0, 48 h
[9] = Cytotoxicity against human OVCAR4 cells assessed as cell growth at 10^-5 M after 48 hrs by SRB assay; assay type: functional; settings: OVCAR-4, 48 h, read-out: Activity
[10] = Cytotoxicity against human DU145 cells assessed as cell growth at 10^-5 M after 48 hrs by SRB assay; assay type: functional; settings: DU-145, 48 h, read-out: Activity
[11] = Cytotoxicity against human UACC62 cells assessed as cell growth at 10^-5 M after 48 hrs by SRB assay; assay type: functional; settings: UACC-62, 48 h, read-out: Activity
[12] = Cytotoxicity against human TK10 cells assessed as cell growth at 10^-5 M after 48 hrs by SRB assay; assay type: functional; settings: TK-10, 48 h, read-out: Activity
[13] = test system: NCI-H226; assay: Cytotoxicity against human NCI-H226 cells after 48 hrs by SRB assay; assay type: functional; settings: NCI-H226, 48 h
[14] = molecular target: T1, Albumin (Homo sapiens, UniProt P02768); assay: Binding affinity to human serum albumin at 0.25 to 2 uM at 303 K by fluorescence microscopic analysis in the presence of phenylbutazone; assay type: ADME; settings: isolated protein
[15] = Cytotoxicity against human RPMI8226 cells after 48 hrs by SRB assay; assay type: functional; settings: RPMI-8226, 48 h
[16] = test system: 786-0; assay: Cytotoxicity against human 786-0 cells assessed as cell growth at 10^-5 M after 48 hrs by SRB assay; assay type: functional; settings: 786-0, 48 h, read-out: Activity
[17] = test system: NCI-H460; assay: Antiproliferative activity against human NCI-H460 cells at 10'5 M; assay type: functional
[18] = test system: A549; assay: Cytotoxicity against human A549 cells after 48 hrs by SRB assay; assay type: functional; settings: A549, 48 h
[19] = Cytotoxicity against human UO31 cells assessed as cell growth at 10^-5 M after 48 hrs by SRB assay; assay type: functional; settings: UO-31, 48 h, read-out: Activity
[20] = test system: U-251; assay: Cytotoxicity against human U251 cells after 48 hrs by SRB assay; assay type: functional; settings: U-251, 48 h
[21] = Cytotoxicity against human SNB75 cells assessed as cell growth at 10^-5 M after 48 hrs by SRB assay; assay type: functional; settings: SNB-75, 48 h, read-out: Activity
[22] = test system: MCF7; assay: Antiproliferative activity against human MCF7 cells at 10'5 M; assay type: functional
[23] = test system: Malme-3M; assay: Cytotoxicity against human MALME-3M cells assessed as cell growth at 10^-5 M after 48 hrs by SRB assay; assay type: functional; settings: read-out: Activity
[24] = Cytotoxicity against human NCI-ADR-RES cells assessed as cell growth at 10^-5 M after 48 hrs by SRB assay; assay type: functional; settings: read-out: Activity
[25] = molecular target: T1, Albumin; assay: Binding affinity to human serum albumin at 0.25 uM at 303 K by fluorescence microscopic analysis in the presence of Zn2+; assay type: ADME; settings: isolated protein
[26] = test system: KM12; assay: Cytotoxicity against human KM12 cells assessed as cell growth at 10^-5 M after 48 hrs by SRB assay; assay type: functional; settings: KM12, 48 h, read-out: Activity
[27] = test system: NCI-H460; assay: Cytotoxicity against human NCI-H460 cells assessed as cell growth at 10^-5 M after 48 hrs by SRB assay; assay type: functional; settings: NCI-H460, 48 h, read-out: Activity
[28] = Cytotoxicity against human SKOV3 cells assessed as cell growth at 10^-5 M after 48 hrs by SRB assay; assay type: functional; settings: SK-OV-3, 48 h, read-out: Activity
[29] = Cytotoxicity against human HL-60(TB) cells assessed as cell growth at 10^-5 M after 48 hrs by SRB assay; assay type: functional; settings: HL-60, 48 h, read-out: Activity
[30] = Cytotoxicity against human IGROV1 cells assessed as cell growth at 10^-5 M after 48 hrs by SRB assay; assay type: functional; settings: IGROV-1, 48 h, read-out: Activity
[31] = Cytotoxicity against human RXF393 cells assessed as cell growth at 10^-5 M after 48 hrs by SRB assay; assay type: functional; settings: RXF 393, 48 h, read-out: Activity
[32] = Antiproliferative activity against human NCI-ADR-RES cells at 10'5 M; assay type: functional
[33] = Cytotoxicity against human SF268 cells assessed as cell growth at 10^-5 M after 48 hrs by SRB assay; assay type: functional; settings: SF-268, 48 h, read-out: Activity
[34] = test system: SK-MEL-28; assay: Cytotoxicity against human SK-MEL-28 cells after 48 hrs by SRB assay; assay type: functional; settings: SK-MEL-28, 48 h
[35] = Cytotoxicity against human HCT116 cells assessed as cell growth at 10^-5 M after 48 hrs by SRB assay; assay type: functional; settings: HCT-116, 48 h, read-out: Activity
[36] = Cytotoxicity against human SNB19 cells after 48 hrs by SRB assay; assay type: functional; settings: SNB-19, 48 h
[37] = molecular target: T1, Albumin; assay: Binding affinity to human serum albumin assessed Stern-Volmer quenching constant at 0.25 to 2 uM at 298 K by fluorescence microscopic analysis; assay type: ADME; settings: isolated protein
[38] = Cytotoxicity against human Caki1 cells assessed as cell growth at 10^-5 M after 48 hrs by SRB assay; assay type: functional; settings: CAKI-1, 48 h, read-out: Activity
[39] = Cytotoxicity against human RPMI8226 cells assessed as cell growth at 10^-5 M after 48 hrs by SRB assay; assay type: functional; settings: RPMI-8226, 48 h, read-out: Activity
[40] = read-out: LC50 (the source's name)

T1 sequence (P02768 whole entry): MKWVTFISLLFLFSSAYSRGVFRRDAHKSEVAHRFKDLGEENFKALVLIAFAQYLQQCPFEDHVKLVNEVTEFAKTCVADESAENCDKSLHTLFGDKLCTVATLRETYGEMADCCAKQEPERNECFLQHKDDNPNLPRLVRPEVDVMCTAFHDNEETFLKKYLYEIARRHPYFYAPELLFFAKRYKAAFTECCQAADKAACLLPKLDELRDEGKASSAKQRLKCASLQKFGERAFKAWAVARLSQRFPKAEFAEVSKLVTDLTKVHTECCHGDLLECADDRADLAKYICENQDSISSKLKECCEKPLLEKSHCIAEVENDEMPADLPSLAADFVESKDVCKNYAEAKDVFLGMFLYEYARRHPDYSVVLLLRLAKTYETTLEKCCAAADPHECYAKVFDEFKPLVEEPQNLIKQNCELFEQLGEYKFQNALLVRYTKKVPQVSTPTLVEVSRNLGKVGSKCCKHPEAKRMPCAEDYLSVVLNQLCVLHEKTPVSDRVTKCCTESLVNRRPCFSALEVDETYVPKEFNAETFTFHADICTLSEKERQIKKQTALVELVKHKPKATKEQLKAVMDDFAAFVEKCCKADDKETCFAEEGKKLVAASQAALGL

In the case of `O=C(/C=C/c1ccccc1)n1c(-c2ccc(Cl)cc2)nc2ccccc21`, the GI50 [1] is reported as 1.47 µM, the TGI [1] is reported as 3.42 µM and the CC50 [1, 40] is reported as 7.93 µM. The growth at 10 µM [2] was -6.61%, the “growth inhibition (GI)” value [3] was 78.07% and the growth at 10 µM [4] was 41.1%. For the same compound, the GI50 [5] was 1.45 µM, the TGI [5] was 5.03 µM and the CC50 [5, 40] was 27.9 µM. The GI50 [6] was 1.9 µM, the TGI [6] was 5.05 µM and the CC50 [6, 40] was 19.6 µM. It also gave a GI50 [7] of 1.8 µM, a TGI [7] of 3.45 µM and a CC50 [7, 40] of 6.61 µM. It also gave a GI50 [8] of 2.43 µM, a TGI [8] of 5.71 µM and a CC50 [8, 40] of 18 µM. The growth at 10 µM [9] was 30%, the growth at 10 µM [10] was 11.1% and the growth at 10 µM [11] was -84.7%. The growth at 10 µM [12] was 18.6%, the GI50 [13] was 1.46 µM and the TGI [13] was 3.82 µM. For the same compound, the CC50 [13, 40] was 10 µM, the K [14] was 3.5 ×10³ /M and the GI50 [15] was 0.61 µM. For the same compound, the TGI [15] was 3.82 µM, the CC50 [15, 40] was > 100 µM and the growth at 10 µM [16] was -17.6%. The “growth inhibition (GI)” value [17] was 99.46%, the GI50 [18] was 0.38 µM and the TGI [18] was 1.88 µM. For the same compound, the CC50 [18, 40] was > 100 µM, the growth at 10 µM [19] was -39% and the GI50 [20] was 1.44 µM. For the same compound, the TGI [20] was 3.77 µM, the CC50 [20, 40] was 9.91 µM and the growth at 10 µM [21] was 18.1%. For the same compound, the “growth inhibition (GI)” value [22] was 89.71%, the growth at 10 µM [23] was 15.9% and the growth at 10 µM [24] was 10.8%. It also gave a K [25] of 2.26 ×10³ /mol, a growth at 10 µM [26] of -62.9% and a growth at 10 µM [27] of 0.54%. It also gave a growth at 10 µM [28] of 23.9%, a growth at 10 µM [29] of -3.97% and a growth at 10 µM [30] of 10.4%. For the same compound, the growth at 10 µM [31] was -65.2%, the “growth inhibition (GI)” value [32] was 89.22% and the growth at 10 µM [33] was -11.8%. It also gave a GI50 [34] of 2.1 µM, a TGI [34] of 4.35 µM and a CC50 [34, 40] of 9.02 µM. The growth at 10 µM [35] was -71.5%, the GI50 [36] was 1.47 µM and the TGI [36] was 2.92 µM. It also gave a CC50 [36, 40] of 5.79 µM, a KSV [37] of 1.37 ×10⁵ L/mol and a growth at 10 µM [38] of -39.5%. The growth at 10 µM [39] was -31.1%.
